“Also recorded” adds a separate entry of the source.
Key:
human pancreatic islets = test: Predicted toxicity to pancreatic islets from Bcl-2 family expression profile; details: predicted from expression profile of Bcl-2 family proteins such as Mcl-1
[1] = system: NP-specific B cell subsets (germinal center, memory and plasma cells); test: In vivo B cell response to NP-KLH immunization; set-up: species or system mice; details: for memory B cell compartment, established memory: treatment started at day 40 after immunization, 14 days, analyzed day 54; for frequency of ASC in the spleen or the bone marrow, established plasma cells: treatment starting day 40 after immunization
Method: Mice were immunized with NP-KLH in alum by intraperitoneal injection and then treated with ABT-737 (75 mg/kg) or vehicle control for 14 consecutive days, starting 5 days after immunization. On day 19 after immunization, the numbers of NP-specific B cell subsets (germinal center (GC), memory and plasma cells) were quantified. As depicted in FIG. 5A, FIG. 5B, FIG. 5C, FIG. 5D, FIG. 5E, and FIG. 5F, antigen-specific B cells were detected by flow cytometry on the basis of surface staining for B220, NP and IgG1. […] To determine if memory cells were sensitive during formation or maintenance, mice were immunized and memory was allowed to form before ABT-737 treatment started at day 40 after immunization. The mice were analyzed after 14 days of treatment with ABT-737 or vehicle, i.e., day 54 after immunization. […] Antibody secreting cells (ASC) are also generated during the B cell response to antigen, secreting antibodies specific for the antigen. In the later stages of T cell dependent immune responses, ASC originate in the GC, then migrate to the bone marrow where they compete for access to survival niches in order to become long-lived plasma cells.

activated murine B cells = test: LPS-stimulated B cell proliferation, 3H-Thy pulse; format: cell-based, mouse; details: B6 B cells, in vitro stimulation with low doses of LPS, 6 hour pulse
Method: Untouched B cells from B6 mouse splenocytes were isolated by MACS separation. 2×10^5B cells were cultured with EXAMPLE A, its enantiomer or vehicle control and […] of lipopolysaccharide (LPS) before a 6 hour pulse with ^3H-Thy. Control vs EXAMPLE A (P<0.05 1-way ANOVA using Dunnett's post-hoc). One representative experiment (n=2) is shown.

[2] = system: cytotoxic T lymphocytes (CTL); test: In vivo CTL response after OVA priming; set-up: species or system C57BL/6 mice; details: 75 mg/kg daily for a week, OVA priming on day 6, assay seven days after priming
Method: Having established the impact of ABT-737 on the steady state immune system, its effects on the development of specific immune responses were next examined. C57BL/6 mice were treated daily for a week with either ABT-737 (75 mg/kg) or vehicle control and on treatment day 6, mice were primed with ovalbumin (OVA) antigen in the form of irradiated OVA-coated H-2Kb+ splenocytes (OCS), a protocol known to induce cytotoxic T lymphocytes (CTL). Seven days after T-cell priming, in vivo CTL responses were assayed by measuring the persistence in spleen and lymph nodes of OVA peptide pulsed target cells, CFSE labeled and injected intravenously.

activated T cells = test: Mouse mixed lymphocyte model, 3H-Thymidine incorporation; format: cell-based; details: Balb/c and C57BL/6 splenocytes co-cultured for 2 days, 6 hour pulse with 3H-Thy
Method: Inhibition of ^3H-Thymidine incorporation by EXAMPLE A. 5×10^5 Balb/c and C57BL/6 splenocytes were co-cultured for 2 days with EXAMPLE A, its enantiomer or vehicle control before a 6 hour pulse with ^3H-Thy.

naïve and memory T cells = test: In vivo depletion of naïve and memory T cells in spleen and lymph nodes (flow cytometry); set-up: species or system C57BL/6 mice
Method: To determine if T cell sensitivity to ABT-737 treatment was predicated on the maturation or differentiation state of a T cell, C57BL/6 mice were treated for 14 consecutive days with either ABT-737 (75 mg/kg) or vehicle control. Spleen and lymph nodes were recovered and the numbers of […]), central memory ([…] effector memory (CD62LloCD44hi) cells determined by flow cytometry.

[3] = system: islet allografts in spontaneously diabetic (RIP-Kb/CBA; H-2k) mice; test: Allogenic islet graft rejection in diabetic mice; format: in vivo, mouse; details: 50 mg/kg intra-peritoneal daily, 14 days; for islet allograft survival versus vehicle treated recipients: graft on day 6
Method: Non-immune diabetic mice were treated daily for 14 consecutive days with either ABT-737 (50 mg/kg) or vehicle control. On treatment day 6, mice received an allogenic grant of F1(B6×SJL) islets transplanted under the kidney capsule. Blood glucose was measured at various times post-transplantation. Grafts were deemed successful if normal blood glucose (<15 mmol/L) levels were achieved within 4 days post-transplantation.
Viable islets were handpicked under dissecting microscope, pooled and cultured overnight at a density of 200-300 islets/3.5 cm Petri dish in 1.1 ml DME supplemented with 10% FCS at 37° C.; 10% CO2. The following day viable islets were handpicked into aliquots of 400 (of an equivalent size distribution) before grafting into recipient mice.
Spontaneously diabetic (RIP-Kb/CBA; H-2^k) (Sutherland, R. M., Mountford, J. N., Allison, J., Harrison, L. C., & Lew, A. M., The non-immune RIP-Kb mouse is a useful host for islet transplantation, as the diabetes is spontaneous, mild and predictable. Int J Exp Diabetes Res, 2002, 3:37-45) male mice were treated daily for five consecutive days either with ABT-737 (50 mg/kg) or vehicle control via intra-peritoneal injection as described by Mason, K. D., Carpinelli, M. R., Fletcher, J. I., Collinge, J. E., Hilton, A. A., Ellis, S., Kelly, P. N., Ekert, P. G., Metcalf, D., Roberts, A. W., et al. Programmed anulear cell death delimits platelet life span. Cell (2007) 128:1173-1186. On day 6, mice received an allograft under the left kidney capsule consisting of 400 purified mouse pancreatic islets isolated from male and female donors [(C57Bl/6×SJL) F1; H-2^b,s]. Treatment was then continued daily for 8 days post transplantation. Graft function was monitored by diabetes reversal, determined by measuring blood glucose via tail vein bleed.

[4] = 75 mg/kg for 14 days starting 5 days after immunization, day 19
[5] = treatment starting on day 5 of the response

## CN(C)CC[C@H](CSc1ccccc1)Nc1ccc(S(=O)(=O)NC(=O)c2ccc(N3CCN(Cc4ccccc4-c4ccc(Cl)cc4)CC3)cc2)cc1[N+](=O)[O-] [EXAMPLE A, N-(4-(4-((4′-chloro(1,1′-biphenyl)-2-yl)methyl)piperazin-1-yl)benzoyl)-4-(((1R)-3-(dimethylamino)-1-((phenylsulfanyl)methyl)propyl)amino)-3-nitrobenzenesulfonamide]
Human pancreatic islets
  toxicity to human pancreatic islets: low toxicity
[1]; [4]
  GC (CD38lo) B cells: unaffected
  memory (CD38hi) B cells: susceptive
  overall number of antigen-specific B cells (B220, NP, IgG1): no significant difference
[1]; 75 mg/kg for 14 days starting 5 days after immunization, day 19, listed as ABT-737
  GC (CD38lo) B cells: refractory
[1]
  memory B cell compartment, established memory: inhibited the persistence of memory B cells
  frequency of ASC in the spleen or the bone marrow, established plasma cells: unaffected
[1]; listed as ABT-737
  memory B cell compartment, established memory: still affected
  frequency of ASC in the spleen or the bone marrow, established plasma cells: no reduction
[1]; [5]
  frequency of antigen-specific IgG1 ASC in the spleen: significantly reduced
  frequency of total and high affinity NP-specific ASC in the bone marrow: marked reduction
Activated murine B cells
  proliferation of activated murine B cells (3H-Thy): inhibits proliferation of activated murine B cells
[2]
  CTL activity: significantly less CTL activity
  reduction in specific target lysis compared to vehicle treated controls: approximately 4 fold
Activated T cells
  proliferation of activated T cells (3H-Thymidine incorporation): inhibits proliferation of activated T cells in a dose dependent manner
naïve and memory T cells; 75 mg/kg, 14 consecutive days
  central and effector memory CD4+ and effector CD8+ T cells in spleen: remain refractory
  numbers of naïve and memory T cells (CD4+ and CD8+) in lymph nodes: significantly reduced
  numbers of naïve cells and CD8+ central memory T cells in spleen: effectively reduced
naïve and memory T cells; mouse immune system, summary statement
  lymphocyte and dendritic cell sub-populations: depleted selective lymphocyte and dendritic cell sub-populations
[3]
  islet allograft survival versus vehicle treated recipients: sufficiently immunosuppressive to allow long-term survival of pancreatic allografts
[3]; listed as ABT-737
  islet allograft survival versus vehicle treated recipients: functioned significantly longer; also recorded: survived longer
[3]; experiment terminated at 100 days
  duration of allograft function (all mice, n=5): ≥ 100 days post-transplantation

— US20160175316A1, “METHOD OF PREVENTING OR TREATING ORGAN, HEMATOPOIETIC STEM CELL OR BONE MARROW TRANSPLANT REJECTION” (AbbVie Inc., priority 2006, published 2016)
